# From patent publication US20210330599A1, “Nanoparticles for Controlled Release of Anti-Biofilm Agents and Methods of Use” (University of Rochester, priority 2016, published 2021)
# Values joined by “and” are separate entries in the source; they are usually repeats but may differ in a detail not shown here. Equal entries are not always repeated.
# Assays:
# [1] = monomer / monomer residue; cited from earlier work
# [2] = test system: S. mutans UA159 biofilms; experiment: S. mutans biofilm on sHA discs, topical treatment regimen (Example 2); assay type: cell-based, Streptococcus mutans; settings: equivalent farnesol dose / controls
# Method: Biofilms of S. mutans UA159 were formed on saliva coated hydroxyapatite (sHA) surfaces (12.7 mm in diameter, 1 mm in thickness, Clarkson Chromatography Products Inc., South Williamsport, Pa.) as detailed elsewhere (Koo et al., 2010, J Bacteriol, 192(12):3024-32). […] Disks were pretreated with the above-described solutions for 10 min, washed twice with sterile saline, and transferred back to culture media. […] Biofilms were allowed to form on the discs without interruption for 6 hours at which point a second treatment was applied. The next day, biofilms were treated every 6 hours for a total of 3 treatments and the culture media was changed twice. After 48 hours, the amount of colony forming units (CFU) per dry-weight of biofilms was assessed. Briefly, the biofilms were removed and homogenized, then plated onto blood agar plates, and after incubation at 37° C., 5% CO2, the CFUs were counted as described previously (Koo et al., 2003, J Antimicrob Chemother, 52(5):782-9).
# [3] = test system: Streptococcus mutans; settings: cited from earlier work
# [4] = test system: Streptococcus mutans UA159 biofilms; experiment: S. mutans biofilm on sHA discs, topical treatment regimen (Example 3); assay type: cell-based; settings: 7 topical applications over 54 h
# Method: Streptococcus mutans UA159, a well-characterized EPS matrix producing and cariogenic pathogen (W. H. Bowen and H. Koo, Caries Res., 2011, 45, 69-86), was used to assess the effect of nanoparticle-mediated delivery of farnesol on biofilm formation using a topical treatment regimen (Horev et al., ACS Nano, 2015, 9, 2390-2404; Koo et al., J. Antimicrob. Chemother., 2003, 52, 782-789). The treatment solutions were: free nanoparticles (1.9 mg ml^−1 in PBS, pH 7.0), farnesol-loaded nanoparticles (1.9 mg ml^−1 loaded with 0.5 mg ml^−1 farnesol, in PBS, pH 7.0), free farnesol (0.5 mg ml^−1 farnesol, in PBS, pH 7.0, 20% ethanol (EtOH)), vehicle control for free farnesol (PBS, pH 7.0, 20% EtOH), and PBS (pH 7.0). A 20% v/v ethanol solution was used as a vehicle to solubilize free farnesol, which is otherwise insoluble in aqueous media (Koo et al., J. Antimicrob. Chemother., 2003, 52, 782-789). […]
# The sHA discs and biofilms were treated for 10 min, washed twice with sterile saline (0.89% NaCl), and transferred to culture media. […] Aliquots of biofilm suspension were serially diluted and plated onto blood agar plates, and after 48 h incubation (37° C. and 5% CO2), the colonies were visually counted. […]
# [5] = Encapsulation of fluoride using NPC; assay type: physicochemical; settings: preliminary studies
# Text: (§1) In addition, amine fluoride is known to have antibacterial properties.
# [6] = test system: S. mutans cells
# Text: as §1
# [7] = pKa and protonation values of monomers and polymers; assay type: physicochemical; settings: FIG. 22
# [8] = farnesol on one degradable tether length (6 degradable bonds)
compound,measurement,setting,value
"C=C(C)C(=O)OCCN(CC)CC [DEAEMA, diethylaminoethyl methacrylate]",pKa of monomer,[1],~7
"C=C(C)C(=O)OCCN(C)C [DMAEMA, dimethylaminoethyl methacrylate]",pKa of monomer,[1],~7.2 and 7.2-7.4
"C=C(C)C(=O)O [MAA, methacrylic acid]",pKa of monomer,[1],~4.6
CC(C)=CCCC(C)=CCCC(C)=CCO [farnesol],effect on biofilm CFU relative to PBS,[2],no effect on CFU relative to PBS
same,MIC of farnesol,[3],< 28 µg/mL
same,CFUs per biofilm dry weight / antibiofilm efficacy,[4],only a modest reduction
[F-].[Na+] [sodium fluoride],compatibility with loading into NPC,[5],not compatible with loading into or onto the NPC
Amine fluoride,biofilm formation,[6],inhibit biofilm formation
same,killing of S. mutans cells,[6],able to kill S. mutans cells at the μM level
Imidazole methacrylate [IMA],pKa of monomer,[1],6.9-7.0
ethylacrylic acid [EAA],pKa of synthesized imidazole and ethylacrylic acid functionalities,[7],6.3
same,pKa of monomer,[1],~6.3 and 6.3-6.5
poly(dimethylaminoethyl methacrylate)-b-poly(dimethylaminoethyl methacrylate-co-propylacrylic acid-co-butyl methacrylate) [NPC],duration of sustained delivery of farnesol,[8],up to 6 days
propylacrylic acid [PAA],pKa of monomer,[1],~7 and 6.8-7.0
